Key:
[1] = biological target: T1, Orexin/Hypocretin receptor type 1 (Homo sapiens, UniProt O43613); experiment: (§1) Orexin Receptor Cell-Based Functional Assay: Measurement of [Ca2+]i using a FLIPR: CHO—OX1 or CHO—OX2 cells were seeded into black-walled clear-base 384-well plates (Corning, catalog #3712) at a density of 20,000 cells per well in F12-K medium supplemented with 10% FBS and then incubated in a 5% CO2, 37° C. incubator overnight to reach 90% confluency. The cells were incubated with equal volume of calcium 6 loading buffer (Molecular Devices, Inc.) containing 2.5 mM probenecid at 37° C. for 2 h, followed by test compounds (dose-range 0.1 nM-10 μM) for another 30 min. The plates were then placed into a FLIPR (Molecular Devices, Inc.) to monitor fluorescence (λ excitation 488 nm, λ emission 540 nm) before and after the addition of EC90 of [OX].
T1 sequence (O43613 whole entry): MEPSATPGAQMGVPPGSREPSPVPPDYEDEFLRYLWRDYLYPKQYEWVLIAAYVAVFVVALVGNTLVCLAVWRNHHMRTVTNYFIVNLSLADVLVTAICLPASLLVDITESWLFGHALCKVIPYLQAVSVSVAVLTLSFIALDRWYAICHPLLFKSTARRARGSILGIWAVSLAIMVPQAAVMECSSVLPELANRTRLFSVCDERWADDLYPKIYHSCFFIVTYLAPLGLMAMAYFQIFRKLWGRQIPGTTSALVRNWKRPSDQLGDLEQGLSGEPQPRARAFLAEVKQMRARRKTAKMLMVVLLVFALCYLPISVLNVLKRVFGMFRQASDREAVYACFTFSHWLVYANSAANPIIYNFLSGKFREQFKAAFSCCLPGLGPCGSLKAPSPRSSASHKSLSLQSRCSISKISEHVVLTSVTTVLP

[2] = biological target: T2, Orexin receptor type 2 (Homo sapiens, UniProt O43614); experiment: as §1
T2 sequence (O43614 whole entry): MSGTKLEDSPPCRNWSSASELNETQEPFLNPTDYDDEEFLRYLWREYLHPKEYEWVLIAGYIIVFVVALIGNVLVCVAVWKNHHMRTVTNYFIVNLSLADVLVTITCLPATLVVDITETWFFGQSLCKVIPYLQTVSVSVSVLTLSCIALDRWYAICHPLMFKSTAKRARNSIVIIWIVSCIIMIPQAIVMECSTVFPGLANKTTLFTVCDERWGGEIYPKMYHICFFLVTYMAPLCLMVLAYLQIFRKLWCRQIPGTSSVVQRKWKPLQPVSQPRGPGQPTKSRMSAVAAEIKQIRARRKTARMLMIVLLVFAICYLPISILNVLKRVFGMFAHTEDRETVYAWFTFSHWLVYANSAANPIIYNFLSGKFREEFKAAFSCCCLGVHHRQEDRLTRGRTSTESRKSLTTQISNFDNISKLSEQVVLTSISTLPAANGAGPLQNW

| IC50 [1] [nM] | IC50 [2] [nM] | Compound |
| --- | --- | --- |
| 1000 |  | C[C@@H]1CC(F)(F)CN(C(=O)c2nn(C)cc2-c2ncc(F)cn2)[C@@H]1COc1cnc(C(F)(F)F)cn1 |
| 1000 |  | C[C@@H]1CC(F)(F)CN(C(=O)c2nn(C)cc2-c2ncc(F)cn2)[C@@H]1COc1ncc(C(F)(F)F)cc1F |
| 8 | > 5000 | C[C@@H]1CC(F)(F)CN(C(=O)c2nn(C)cc2-c2ccccc2)[C@@H]1COc1ccc(C(F)(F)F)cn1 |

From ChEMBL document CHEMBL5728229, “Halo-substituted piperidines as orexin receptor modulators” (2021)
